The values below come from ChEMBL document CHEMBL1201862, “PubChem BioAssay data set” (2004).

Among the test systems are UACC-62; RPMI-8226; HT-29; SK-OV-3; EKVX; HOP-92; MDA-MB-435; DU-145; SF-539; SR; NCI-H522; MDA-N; HCC 2998; SK-MEL-28; Hs-578T; MOLT-4; M14; HCT-116; SF-295; SNB-19.
What all share (experiment): NCI anticancer screen, dose series, 48 h

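Assay format: 96-well plates, 48-hour exposure. Abbreviation: GI50, concentration required for 50% inhibition of growth.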 Active and inactive are the calls of the source. No stated cut-off is given here; in the data, active = GI50 up to about 1.1 µM and inactive = higher. Starred links: 1 amine or outer side, 2 acyl side, 3 side chain; linkers in the order of their positions; H or OH if unused. Positions of bridges follow the written chain, without caps; N, C: chain ends. Non-standard residues stand in square brackets, D forms with d. Residues, ends and D or L forms follow the SMILES beside them. Chains are numbered I, II in the order given. Actinocin(1to9) = Cc1c2oc3c(C)ccc(C(=O)[*:2])c3nc-2c(C(=O)[*:1])c(N)c1=O; NMeV = CN[CH](C(=O)O)C(C)C; Sar = CNCC(=O)O

Turning to `CCOC(=O)/C(=C\c1ccc(N(C)C)cc1)S(=O)(=O)C(F)(F)C(F)(F)C(F)(F)C(F)(F)F`, the GI50 with UACC-62, in the assay with RPMI-8226, with HT-29, in the assay on SK-OV-3, in the assay on EKVX and in the assay on HOP-92 was > 100 µM (inactive) throughout. In addition, the GI50 in the assay with MDA-MB-435, with DU-145, in the assay on SF-539, in the assay on SR, in the assay with NCI-H522 and in the assay on MDA-N was > 100 µM (inactive) throughout. The GI50 in the assay on HCC 2998, in the assay on SK-MEL-28, in the assay with Hs-578T, in the assay with MOLT-4, in the assay on M14 and in the assay with HCT-116 was > 100 µM (inactive) each time. The GI50 with SF-295 and with SNB-19 was > 100 µM (inactive) each time.
Consider `Oc1nc2ccccc2c(O)c1Cc1ccccc1`, for which the GI50 in the assay on RPMI-8226, in the assay on HT-29, in the assay on EKVX, with HOP-92, with MDA-MB-435 and in the assay on DU-145 was > 100 µM (inactive) throughout. In addition, the GI50 in the assay on SF-539, in the assay with SR, in the assay with NCI-H522, in the assay with MDA-N, in the assay with HCC 2998 and in the assay on SK-MEL-28 was > 100 µM (inactive) throughout. Moreover, the GI50 with Hs-578T, in the assay on MOLT-4, in the assay on HCT-116, in the assay with SF-295 and in the assay with SNB-19 was > 100 µM (inactive) each time.
Turning to `Cc1cc(C)nc(NS(=O)(=O)c2ccc(NC(=O)c3ccc4nc5ccccc5c(Nc5ccc(S(=O)(=O)N=C(N)N)cc5)c4c3)cc2)n1`, the GI50 in the assay with UACC-62 was > 100 µM (inactive); in the assay on RPMI-8226, > 100 µM (inactive); with HT-29 it was > 100 µM (inactive); with SK-OV-3 it was > 100 µM (inactive); in the assay with EKVX it was > 100 µM (inactive); in the assay on HOP-92, 32.4 µM (inactive). Moreover, the GI50 in the assay on MDA-MB-435, in the assay with DU-145, with SF-539, in the assay on SR, in the assay with NCI-H522 and with MDA-N was > 100 µM (inactive) throughout. The GI50 in the assay on HCC 2998, with SK-MEL-28, in the assay on Hs-578T, with MOLT-4, in the assay on M14 and in the assay on HCT-116 was > 100 µM (inactive) in each case. Also, the GI50 in the assay with SF-295 and in the assay with SNB-19 was > 100 µM (inactive) in each case.
As to `CSC(SC)=C(C#N)C(=O)Nc1ccc(C)cc1`, the GI50 in the assay with UACC-62 is 94.4 µM (inactive); in the assay with RPMI-8226 it was 42.2 µM (inactive); in the assay with HT-29 it was > 100 µM (inactive); in the assay on SK-OV-3, > 100 µM (inactive); in the assay with EKVX it was > 100 µM (inactive); with HOP-92, 15.5 µM (inactive). For the same compound, the GI50 in the assay on MDA-MB-435 is > 100 µM (inactive); in the assay on DU-145 it was > 100 µM (inactive); in the assay with SF-539, > 100 µM (inactive); in the assay with SR, 63 µM (inactive); with NCI-H522, 28.9 µM (inactive); with MDA-N, > 100 µM (inactive). In addition, the GI50 in the assay with HCC 2998 is > 100 µM (inactive); in the assay with SK-MEL-28, > 100 µM (inactive); in the assay on Hs-578T it was > 100 µM (inactive); with MOLT-4, 95.5 µM (inactive); in the assay on M14 it was > 100 µM (inactive); with HCT-116, 49.5 µM (inactive). Further, the GI50 in the assay on SF-295 and in the assay with SNB-19 was > 100 µM (inactive) throughout.
As to `O=C(OCc1ccccc1)N1c2cc([N+](=O)[O-])ccc2C(=O)N2CCC[C@H]2C1O` (stereo not given in full), the GI50 with UACC-62, in the assay with RPMI-8226, in the assay on HT-29, in the assay on SK-OV-3, in the assay with EKVX and in the assay on HOP-92 was > 100 µM (inactive) each time. Further, the GI50 with MDA-MB-435, in the assay with DU-145, in the assay with SF-539, in the assay on SR, in the assay with NCI-H522 and with MDA-N was > 100 µM (inactive) throughout. In addition, the GI50 with HCC 2998, in the assay with SK-MEL-28, in the assay on Hs-578T, in the assay with MOLT-4, in the assay on M14 and in the assay on HCT-116 was > 100 µM (inactive) throughout. The GI50 with SF-295 and in the assay with SNB-19 was > 100 µM (inactive) in each case.
For the compound `COc1ccc(C(O)CC(O)(C(F)(F)F)C(F)(F)F)cc1` (stereo not given), the GI50 with UACC-62 was 22.8 µM (inactive); in the assay on RPMI-8226, 14.4 µM (inactive); in the assay with HT-29 it was 28.8 µM (inactive); in the assay on SK-OV-3 it was 54.1 µM (inactive); with EKVX, 31.3 µM (inactive); with HOP-92, 15.8 µM (inactive). For the same compound, the GI50 was 31.9 µM (inactive) in the assay with MDA-MB-435; 47 µM (inactive) in the assay on DU-145; 21.7 µM (inactive) with SF-539; 22.9 µM (inactive) with SR; 32.1 µM (inactive) with NCI-H522; 46.2 µM (inactive) in the assay with MDA-N. Further, the GI50 in the assay with HCC 2998 is 38 µM (inactive); in the assay with SK-MEL-28 it was 62.7 µM (inactive); in the assay with Hs-578T, 16.3 µM (inactive); in the assay on MOLT-4, 23.9 µM (inactive); in the assay with M14, 32.8 µM (inactive); with HCT-116, 16.6 µM (inactive). For the same compound, the results for the GI50 in the assay with SF-295 and in the assay with SNB-19 were 29.6 µM (inactive) and 24.9 µM (inactive), respectively.
On to `COc1ccc(CC2c3cc(OC)c(OC)c(OC)c3CC[N+]2(C)C)cc1Oc1ccc(CC2c3cc4c(c(OC)c3CCN2C)OCO4)cc1` (stereo not given), for which the GI50 in the assay on UACC-62, with HT-29, with SK-OV-3, with EKVX, with HOP-92 and in the assay on MDA-MB-435 was > 100 µM (inactive) in each case. Besides, the GI50 is > 100 µM (inactive) in the assay on DU-145; > 100 µM (inactive) in the assay on SF-539; 52.1 µM (inactive) in the assay on SR; 97.7 µM (inactive) in the assay on NCI-H522; > 100 µM (inactive) in the assay on MDA-N; > 100 µM (inactive) in the assay on HCC 2998. Also, the GI50 in the assay with SK-MEL-28, in the assay on Hs-578T, with MOLT-4, with M14, in the assay with HCT-116 and in the assay with SF-295 was > 100 µM (inactive) in each case. For the same compound, in the assay with SNB-19, the GI50 is > 100 µM (inactive).
Turning to `CCC(C)C1NC(=O)C(NC(=O)c2c3nc4c(C(=O)NC5C(=O)NC(C(C)CC)C(=O)N6CCCC6C(=O)N(C)CC(=O)N(C)C(C(C)C)C(=O)OC5C)ccc(C)c4oc-3c(C)c(=O)c2N)C(C)OC(=O)C(C(C)C)N(C)C(=O)CN(C)C(=O)C2CCCN2C1=O` (stereo not given) (I: TIP[Sar][NMeV] / II: TIP[Sar][NMeV]; ester I:1-I:C, II:1-II:C; linker I:N-II:N via Actinocin(1to9); configuration not given here), the GI50 is 0.000169 µM (active) with UACC-62; 0.000143 µM (active) in the assay on RPMI-8226; < 0.0001 µM (active) in the assay with HT-29; 0.0208 µM (active) in the assay on SK-OV-3; 0.0145 µM (active) with EKVX; 0.00255 µM (active) in the assay with HOP-92. Also, the GI50 is 0.000539 µM (active) in the assay on MDA-MB-435; 0.011 µM (active) with DU-145; < 0.0001 µM (active) in the assay with SF-539; < 0.0001 µM (active) with SR; < 0.0001 µM (active) with NCI-H522; < 0.01 µM (active) in the assay with MDA-N. Moreover, the GI50 with HCC 2998 is 0.013 µM (active); in the assay with SK-MEL-28, 0.00011 µM (active); with Hs-578T it was 0.0065 µM (active); in the assay with MOLT-4, < 0.0001 µM (active); with M14 it was < 0.00995 µM (active); in the assay on HCT-116 it was < 0.0001 µM (active). The values for the GI50 with SF-295 and in the assay on SNB-19 were 0.000477 µM (active) and < 0.0001 µM (active), respectively.
Consider `CC1=C(Cl)C[C@@H](/C(C)=C\Cl)O[C@@]1(O)C(Br)Br`, for which the GI50 is 45.2 µM (inactive) in the assay on UACC-62; 18.2 µM (inactive) in the assay with RPMI-8226; 32.1 µM (inactive) with HT-29; > 100 µM (inactive) in the assay with SK-OV-3; 26.5 µM (inactive) in the assay on EKVX; 25.2 µM (inactive) in the assay with HOP-92. In addition, the GI50 with MDA-MB-435 was 31.6 µM (inactive); in the assay with DU-145, 19.9 µM (inactive); in the assay with SF-539, 33.8 µM (inactive); with SR it was 19.5 µM (inactive); in the assay with NCI-H522 it was 18.9 µM (inactive); with MDA-N, 19.2 µM (inactive). Also, the GI50 in the assay with HCC 2998 was 33.3 µM (inactive); in the assay with SK-MEL-28 it was 59.8 µM (inactive); with Hs-578T it was 45.5 µM (inactive); in the assay on MOLT-4, 15.6 µM (inactive); with M14, 22.5 µM (inactive); in the assay with HCT-116 it was 30.4 µM (inactive). Besides, the GI50 in the assay on SF-295 and in the assay with SNB-19 was > 100 µM (inactive) each time.
Regarding `CC(N1CCOCC1)C(O)(c1ccccc1)c1ccccn1` (stereo not given), the GI50 was 37.8 µM (inactive) with UACC-62; > 100 µM (inactive) in the assay on RPMI-8226; > 100 µM (inactive) in the assay on HT-29; > 100 µM (inactive) in the assay on SK-OV-3; > 100 µM (inactive) in the assay with EKVX; > 100 µM (inactive) with HOP-92. For the same compound, the GI50 with MDA-MB-435, with DU-145, with SF-539, in the assay with SR, in the assay on NCI-H522 and with MDA-N was > 100 µM (inactive) throughout. The GI50 in the assay with HCC 2998 was 0.0192 µM (active); with SK-MEL-28, > 100 µM (inactive); in the assay on Hs-578T, > 100 µM (inactive); in the assay with M14 it was > 100 µM (inactive); with HCT-116 it was > 100 µM (inactive); in the assay on SF-295, > 100 µM (inactive). Besides, in the assay on SNB-19, the GI50 was > 100 µM (inactive).
